One may read the IC50 as the concentration that inhibits the measured activity by half. Higher therefore signals weaker potency.

Drawing on US20230293518A1 (Edgewise Therapeutics, Inc., priority 2020, published 2023), this text covers IC50 for 16 molecules.

For this test, the target named is skeletal myofibrils (myosin ATPase). Description: Skeletal Myofibril ATPase Assay. Format: biochemical. Here is the method: Example 12. Skeletal Myofibril ATPase Assay
Overview: Myosin ATPase activity is assessed by using a coupled reaction system, in which ADP generated by the myosin ATPase function is coupled to the disappearance of NADH through the pyruvate kinase/lactate dehydrogenase (PK-LDH) system. ATPase activity produces ADP, which is used as a substrate for PK to produce pyruvate and regenerate ATP. The pyruvate is then used as a substrate by LDH to oxidize NADH to NAD+. The rate of the reaction is monitored through the time-dependent disappearance of NADH using absorbance at 340 nm. Inhibition of ATPase activity by the assayed compounds is indicated by a reduced rate of NADH loss, relative to vehicle-treated controls, over the experimental time window. To assess the selectivity of the assayed compounds for skeletal myofibrils, the compounds are counter-screened in cardiac myofibrils.
Materials: The following stock solutions and reagents were used in the Skeletal Myofibril ATPase Assay:
Stock Solutions of pCa buffer. Combine PIPES, CaCl2, and EGTA solutions with 70 mL of water. Adjust pH to 7.0 and bring final volume to 100 mL.
Buffer A & Buffer B. Buffers were stored on ice until use.
Skeletal Myofibril ATPase Assay Procedure: BSA, ATP, NADH, PEP, and DTT solutions were thawed at room temperature, then transferred to ice. Pellet-frozen myofibrils were transferred with approximately twice the required volume into a sufficiently large tube and capped. Myofibrils were thawed by rolling in a water bath for approximately 15 min at room temperature and cooled on ice. Buffers A and B were prepared by adjusting volumes as necessary for required number of wells and stored on ice. 0.5 μL of the compounds to be assayed were added into wells. 25 μL of Buffer A was dispensed into the wells, followed by 25 μL of Buffer B. The wells were measured for absorbance at 340 nm, using a kinetic protocol in which the wells are read every 1.5-2 min for 45 min. The slope of the data was approximated by subtracting the minimum absorbance value from the maximum value for each well. This was accomplished either in the SoftMax Pro software or in a spreadsheet program such as Excel. Using GraphPad Prism 8.0, the data was normalized by assigning a value of 100% to the 1% DMSO vehicle wells. Typically, a normalized 0% value was simply assigned to a (Max−Min) value of 0. The normalized data was fit to a Four Parameter Logistic sigmoidal equation, constraining the bottom to be 0 or greater. Compounds of Table 1, 2, and 3 were tested and results of the assay appear in Tables 4a-4c. A=IC50 is less than or equal to 10 μM; B═IC50 is greater than 10 μM and less than 100 μM; C═IC50 is greater than 100 μM.

On to `COc1ccc(-c2ccc(=O)n(CC(=O)NCc3ccccc3Cl)n2)cn1` [Compound I-5, N-(2-chlorobenzyl)-2-(3-(6-methoxypyridin-3-yl)-6-oxopyridazin-1(6H)-yl)acetamide], for which the IC50 (Table 4A) was less than 10 µM.

`CCNC(=O)Cn1nc(-c2ccc(N3CC4(C3)CS(=O)(=O)C4)nc2)ccc1=O` [Compound I-32, 2-(3-(6-(2,2-dioxido-2-thia-6-azaspiro[3.3]heptan-6-yl)pyridin-3-yl)-6-oxopyridazin-1(6H)-yl)-N-ethylacetamide] displayed an IC50 (Table 4A) of more than 100 µM.

For the molecule `COc1ccc(-c2ccc(=O)n(CC(=O)NCCc3ccc(OC)c(OC)c3)n2)cc1` [IIIb-51, N-(3,4-dimethoxyphenethyl)-2-(3-(4-methoxyphenyl)-6-oxopyridazin-1(6H)-yl)acetamide], the concentration for half-maximal inhibition (IC50) (Table 4C) was more than 100 µM. Turning to `Cc1ccc(-c2ccc(=O)n(CC(=O)NCCc3ccccc3)n2)cc1` [IIIc-3, 2-(6-oxo-3-(p-tolyl)pyridazin-1(6H)-yl)-N-phenethylacetamide], the IC50 (Table 4C) was less than 10 µM. The same measure, in the same setting: then `COc1ccc(-c2ccc(=O)n(CC(=O)NCCC3=CCCCC3)n2)c(F)c1` [IIIb-7, N-(2-(cyclohex-1-en-1-yl)ethyl)-2-(3-(2-fluoro-4-methoxyphenyl)-6-oxopyridazin-1(6H)-yl)acetamide], with less than 10 µM. On the same count and under the same terms, the result for `COc1ccc(-c2ccc(=O)n(CC(=O)Nc3ccc4c(c3)OCO4)n2)c(F)c1` [IIIb-33, N-(benzo[d][1,3]dioxol-5-yl)-2-(3-(2-fluoro-4-methoxyphenyl)-6-oxopyridazin-1(6H)-yl)acetamide] reads 10 to 100 µM. Consider `O=C(Cn1nc(-c2ccccc2)ccc1=O)Nc1ccccc1F` [IIIc-66, N-(2-fluorophenyl)-2-(6-oxo-3-phenylpyridazin-1(6H)-yl)acetamide], for which the IC50 (Table 4C) was more than 100 µM. In turn, `O=C(Cn1nc(-c2ccc(OCC(F)(F)F)cc2)ccc1=O)N1CCC1c1ccccc1` (stereo not shown) [II-23, 2-(2-oxo-2-(2-phenylazetidin-1-yl)ethyl)-6-(4-(2,2,2-trifluoroethoxy)phenyl)pyridazin-3(2H)-one] displayed an IC50 (Table 4B) of less than 10 µM. On to `CC[C@H](C)NC(=O)Cn1nc(-c2ccc(Cl)cc2)ccc1=O` [IIIc-30, (S)-N-(sec-butyl)-2-(3-(4-chlorophenyl)-6-oxopyridazin-1(6H)-yl)acetamide], for which, where the note is “Table 4C”, the IC50 is 10 to 100 µM. In turn, `CCNC(=O)Cn1nc(-c2ccc(NC)nc2)ccc1=O` [Compound I-47, N-ethyl-2-(3-(6-(methylamino)pyridin-3-yl)-6-oxopyridazin-1(6H)-yl)acetamide] came in with an IC50 (Table 4A) of less than 10 µM.

Molecule `COc1ccc(-c2ccc(=O)n(CC(=O)NCc3ccccc3Cl)n2)cc1F` [IIIa-24, N-(2-chlorobenzyl)-2-(3-(3-fluoro-4-methoxyphenyl)-6-oxopyridazin-1(6H)-yl)acetamide] returned an IC50 (Table 4C) of 10 to 100 µM. Where the note is “Table 4B”, `O=C(Cn1nc(-c2ccc(OCC(F)(F)F)cc2)ccc1=O)N1CC(c2ccccc2)C1` [II-22, 2-(2-oxo-2-(3-phenylazetidin-1-yl)ethyl)-6-(4-(2,2,2-trifluoroethoxy)phenyl)pyridazin-3(2H)-one] gave an IC50 of less than 10 µM. Regarding `CC(C)(C#N)NC(=O)Cn1nc(-c2ccc(OC(F)F)nc2)ccc1=O` [Compound I-35, N-(2-cyanopropan-2-yl)-2-(3-(6-(difluoromethoxy)pyridin-3-yl)-6-oxopyridazin-1(6H)-yl)acetamide], the 50% inhibitory concentration (IC50) (Table 4A) fell in the range of 10 to 100 µM. Turning to `COc1ccc(-c2ccc(=O)n(CC(=O)NCCc3ccccc3)n2)cc1` [IIIa-5, 2-(3-(4-methoxyphenyl)-6-oxopyridazin-1(6H)-yl)-N-phenethylacetamide], the IC50 (Table 4C) is less than 10 µM. On the same count and under the same terms, the result for `CC(C)CNC(=O)Cn1nc(-c2ccc(Cl)cc2)ccc1=O` [IIIc-35, 2-(3-(4-chlorophenyl)-6-oxopyridazin-1(6H)-yl)-N-isobutylacetamide] reads 10 to 100 µM. As for `CCCNC(=O)Cn1nc(-c2ccc(OC(F)F)cc2)ccc1=O` [II-12, 2-(3-(4-(difluoromethoxy)phenyl)-6-oxopyridazin-1(6H)-yl)-N-propylacetamide], the IC50 (Table 4B) lay in the range of 10 to 100 µM.
